Reference: US20020192754A1 (MAX-PLANCK-GESELLSCHAFT E.V., priority 1999, published 2002)
Read-outs that look alike come from different tables or passages of the source. Values belong to the compound of their own block, whether it stands above or below them. Where a SMILES comes first, the peptide text is derived from it. [ ]: non-standard residue; d: D form. The star is where a group is joined. Sta = CC(C)C[C@H](N)[C@@H](O)CC(=O)O; Isovaleryl = CC(C)CC(=O)*; CH2Cl = ClC*

Legend:
human GzmK [1] = target: T1, human GzmK (Homo sapiens, UniProt P49863); assay: Inhibition of human GzmK by various inhibitors (residual activity, this study); assay type: biochemical
T1 construct: Met-Glu N-terminal helper dipeptide (pro-dipeptide) (N, cleaved yes); made in house
T1 sequence (P49863 27-264): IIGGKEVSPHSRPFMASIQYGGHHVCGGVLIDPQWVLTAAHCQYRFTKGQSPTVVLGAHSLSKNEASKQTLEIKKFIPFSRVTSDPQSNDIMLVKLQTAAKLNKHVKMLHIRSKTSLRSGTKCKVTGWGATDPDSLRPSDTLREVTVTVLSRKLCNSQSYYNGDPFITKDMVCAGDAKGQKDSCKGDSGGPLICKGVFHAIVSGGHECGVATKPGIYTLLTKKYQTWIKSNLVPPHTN
Experimental: These activity tests were performed in wells of a 96-cup tray with respectively 150 μl of the sample volume.
The thiobenzylester substrates and Ellman's reagency were diluted to end concentrations of 0.3 mM in the test buffer (150 mM Tris, 50 mM NaCl, 0.01% Triton X-100, pH 7.6). The various granzyme preparations were likewise diluted to 3-15 nM in the test buffer. The color change occurring with the conversion of the substrates was measured at 405 nm and room temperature over 5 minutes in the ELISA reader. The difference in absorptions at the beginning and after 5 minutes as it relates to time was used to calculate the conversion rate.
After a 60-minute preincubation at RT the residual activity was ascertained in triple batches. Initial activities were determined in buffers containing the same proportion of organic solvents. […] Molar concentrations of active aprotinine were ascertained with the use of activity-titrated bovine trypsin.

human GzmK [2] = target: T1, human GzmK; details: cited from earlier work
[3] = inhibitor 0.1 mM, I:E 33 x 10^3, 3 nM human GzmK, 60-minute preincubation at RT

remaining activity at 27000 µM (human GzmK [1]; inhibitor 27.0 mM, I:E 9000 x 10^3, 3 nM human GzmK, 60-minute preincubation at RT): 43.1%
Compound: N=C(N)c1ccccc1 [Benzamidine]
Residual Activity (%) Babé et al., Bio. Appl. Bioch. 27:117-124 (1998) (human GzmK [2]; table row: inhibitor 27.0 mM): 50%

Compound: O=C(O)CN(CCN(CC(=O)O)CC(=O)O)CC(=O)O [EDTA]
Residual Activity (%) This study (human GzmK [1]): 106.4% | Residual Activity (%) Babé et al., Bio. Appl. Bioch. 27:117-124 (1998) (human GzmK [2]): 100%

Residual Activity (%) This study (human GzmK [1]; [3]): 54.8%
Compound: NC(N)=NCCC[C@H](NC(=O)CNC(=O)[C@@H](N)CCC(=O)O)C(=O)CCl [EGR-CMK] (H-Glu-Gly-Arg-CH2Cl)

Residual Activity (%) This study (human GzmK [1]; [3]): 0.0%
Compound: NC(N)=NCCC[C@H](NC(=O)[C@@H]1CCCN1C(=O)[C@H](N)Cc1ccccc1)C(=O)CCl [FPR-CMK]

Compound: CC(=O)N[C@@H](CC(C)C)C(=O)N[C@@H](CC(C)C)C(=O)N[C@H](C=O)CCCNC(=N)N [Leupeptin]
remaining activity at 200 µM (human GzmK [1]; inhibitor 0.2 mM, I:E 67 x 10^3, 3 nM human GzmK, 60-minute preincubation at RT): 78% | Residual Activity (%) Babé et al., Bio. Appl. Bioch. 27:117-124 (1998) (human GzmK [2]; table row: inhibitor 0.2 mM): 50%

Compound: Cl.NCCc1ccc(S(=O)(=O)F)cc1 [PefablocSC]
Residual Activity (%) This study (human GzmK [1]; inhibitor 0.5 mM, I:E 170 x 10^3, 3 nM human GzmK, 60-minute preincubation at RT): 26.0% | Residual Activity (%) This study (human GzmK [1]; inhibitor 1.0 mM, I:E 330 x 10^3, 3 nM human GzmK, 60-minute preincubation at RT): 5.7%

Compound: CC(C)CC(=O)N[C@H](C(=O)N[C@H](C(=O)N[C@@H](CC(C)C)[C@@H](O)CC(=O)N[C@@H](C)C(=O)N[C@@H](CC(C)C)[C@@H](O)CC(=O)O)C(C)C)C(C)C [Pepstatin A] (Isovaleryl-VV[Sta]A[Sta]-OH)
Residual Activity (%) This study (human GzmK [1]; inhibitor 0.001 mM, I:E 0.3 x 10^3, 3 nM human GzmK, 60-minute preincubation at RT): 93.0% | Residual Activity (%) Babé et al., Bio. Appl. Bioch. 27:117-124 (1998) (human GzmK [2]; table row: inhibitor 0.001 mM): 100%

Compound: Aprotinine
Residual Activity (%) This study (human GzmK [1]; inhibitor 0.015 mM, I:E 5 x 10^3, 3 nM human GzmK, 60-minute preincubation at RT): 8.6% | Residual Activity (%) Babé et al., Bio. Appl. Bioch. 27:117-124 (1998) (human GzmK [2]; table row: inhibitor 0.015 mM): 0%

Compound: N-tosyllysine chloromethylketone [TLCK]
Residual Activity (%) This study (human GzmK [1]; [3]): 91.0% | Residual Activity (%) Babé et al., Bio. Appl. Bioch. 27:117-124 (1998) (human GzmK [2]; table row: inhibitor 0.1 mM): 0%

Compound: N-tosylphenylalanine chloromethylketone [TPCK]
Residual Activity (%) This study (human GzmK [1]; inhibitor 0.05 mM, I:E 17 x 10^3, 3 nM human GzmK, 60-minute preincubation at RT): 96.0% | Residual Activity (%) Babé et al., Bio. Appl. Bioch. 27:117-124 (1998) (human GzmK [2]; table row: inhibitor 0.05 mM): 95%
